The test system of data set [1] is A549 human lung cancer cells. Briefly: Trypan Blue cell viability/growth assay, A549 cells. It counts as cell-based. To be noted: for Potentiation of anti-cancer activity by esterization: ester vs original acid; for fold more potent than original acid, growth of A549 cells: ester vs original acid (ARC, CA or Ketorolac). As for the experimental part: (§1) A. Cell Lines: Human lung cancer (A549) cells carrying an oncogenic K-RAS mutant or murine melanoma (B16F10) cells
(§2) B. Cell seeding in 96 well plate: In culture medium D-MEM with or without 10% fetal bovine serum.
(§3) C. Inhibitor Stocks in DMSO (100 mM)
(§4) D. Trypan Blue Assay for Cell Viability/Growth (4): The most commonly used MTT assay for cell viability/growth is not feasible for cells treated with triazolyl derivatives, mainly because these compounds are reduced by mitochondrial reductase in viable cells, just like MTT, and converted to a purple compound which would clearly interfere with the colorimetry on which MTT assay depends. Thus, a more classic method called Trypan Blue exclusion assay should be used for determining cell viability/growth of cells treated with all triazolyl derivatives. In this assay, only dead cells are stained with Trypan Blue, while viable cells exclude this blue dye.
(§5) The assay was conducted as previously described. Briefly, A549 or B16F10 cells were seeded at 2×10^4 cells/well in 96 well plate for 24 hrs in the above medium, and then treated with one of the tested compounds in the same medium for 96 hrs. Cell were detached from the plate by a protease called accutase, and stained with Trypan blue, and the number of unstained (viable) cells was counted in a hemocytometer.

The target in data set [2] is T1, PAK1 (Homo sapiens, UniProt Q13153).
T1 construct: endogenous in cells; host or cells: A549 human lung cancer cells
T1 sequence (Q13153 whole entry): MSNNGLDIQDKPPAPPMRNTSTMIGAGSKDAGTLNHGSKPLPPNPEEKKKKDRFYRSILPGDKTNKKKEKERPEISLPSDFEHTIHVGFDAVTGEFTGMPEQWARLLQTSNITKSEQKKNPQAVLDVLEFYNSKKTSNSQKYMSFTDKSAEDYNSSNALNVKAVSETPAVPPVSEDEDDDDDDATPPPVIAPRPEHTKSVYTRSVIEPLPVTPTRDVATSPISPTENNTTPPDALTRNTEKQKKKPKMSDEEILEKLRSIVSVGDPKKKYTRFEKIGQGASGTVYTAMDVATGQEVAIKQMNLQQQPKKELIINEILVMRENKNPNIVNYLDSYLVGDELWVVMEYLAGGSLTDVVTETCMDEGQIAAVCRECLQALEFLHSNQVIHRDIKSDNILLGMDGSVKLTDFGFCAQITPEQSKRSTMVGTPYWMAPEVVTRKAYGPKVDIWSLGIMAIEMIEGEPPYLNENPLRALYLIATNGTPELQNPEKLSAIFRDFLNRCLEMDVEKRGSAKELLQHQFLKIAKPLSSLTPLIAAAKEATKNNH
Kind of data set: Anti-PAK1 activity in cell culture, Macaroni-Western (IP) ATP-Glo kinase assay. Format: cell-based. How it is done: A. Cell line: Human lung cancer (A549) cells.
B. Cell seeding in 6-well plate with the culture medium (D-MEM).
C. Inhibitor Stocks in DMSO (100 mM).
D. “Macaroni-western” (IP) ATP-Glo kinase assay: The kinase activity of PAK1 in A549 (or B16F100 cells was measured by a method called “Macaroni-Western” (IP) ATP-Glo kinase assay. Briefly, cells (2×10^5 cells/mL) were pre-cultured on 6-well plate for 24 hrs in the medium. Then cells were treated with a test compound in the same medium for additional 24 hrs. Cells were disrupted by lysis buffer containing 50 mM Tris-HCl pH 7.5 and 150 mM NaCl and 1% Triton-X. For the immunoprecipitation (IP) of PAK1, the cleared cell lysates were incubated with anti-PAK1 IgG (1:50 dilution) and protein A-agarose beads for 1-2 hrs in cold room with continuous shaking by a rotary mixer (Nissin, Suginami-ku, Tokyo, Japan). The resultant IP (PAK1) from each lysate was incubated with ATP-Glo kinase assay kit (Promega) in the presence of ATP and MBP (myelin basic protein) for 1 hr at 37° C., and the remaining ATP level was measured by the ATP-dependent Luciferin-Luciferase reaction which eventually generates a luminescence. The final suspension was centrifuged, and the supernatant was transferred to 96-well plate for reading. Luminescence was recorded by MTP-880Lab microplate reader (Corona, Hitachinaka-ku, Ibaraki, Japan) with an integration time of 0.5 s per well.

For data set [3], the target named is T2, recombinant human COX-2 (Homo sapiens, UniProt P35354).
T2 sequence (P35354 18-604): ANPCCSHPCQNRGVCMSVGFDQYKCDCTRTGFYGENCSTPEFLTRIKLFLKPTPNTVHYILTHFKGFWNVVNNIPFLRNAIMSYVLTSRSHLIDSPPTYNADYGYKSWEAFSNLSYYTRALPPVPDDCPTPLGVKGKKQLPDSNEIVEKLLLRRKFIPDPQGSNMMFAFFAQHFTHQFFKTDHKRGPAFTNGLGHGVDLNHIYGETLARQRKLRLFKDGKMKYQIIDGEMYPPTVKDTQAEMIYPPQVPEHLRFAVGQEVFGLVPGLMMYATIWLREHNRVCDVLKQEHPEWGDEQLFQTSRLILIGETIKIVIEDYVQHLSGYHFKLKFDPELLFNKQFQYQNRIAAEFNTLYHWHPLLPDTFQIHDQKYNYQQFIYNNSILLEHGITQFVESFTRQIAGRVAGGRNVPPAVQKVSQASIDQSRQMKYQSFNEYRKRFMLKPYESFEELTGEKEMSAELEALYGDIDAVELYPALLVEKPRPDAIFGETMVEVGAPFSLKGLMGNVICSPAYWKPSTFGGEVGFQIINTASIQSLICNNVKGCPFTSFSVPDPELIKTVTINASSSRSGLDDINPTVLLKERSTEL
Kind of data set: In vitro anti-COX-2 activity. It counts as biochemical. How it is done: The effect of Ketorolac and PRC-15K (both in racemic form) on COX-2 was assayed in vitro, essentially according to the procedure previously published (5). Briefly, the recombinant human COX-2 was treated with either Ketorolac or PRC-15K at concentrations ranging 5-200 nM for 2 or 5 min (depending on the chemical nature of the test compounds) at room temperature in the presence of arachidonic acid, to measure the remaining COX-2 activity at 590 nm. The COX-2 activity without these test chemicals was used as the negative control for calculating their anti-COX-2 activity.

The test system of data set [4] is EMT6 breast cancer cells. Kind of data set: Cell-permeability (intracellular uptake) assay by HPLC. Format: in vitro ADME. To be noted: for fold more cell-permeable than original acid: 100 uM, uptake during first 1 hr, lower bound. As for the experimental part: For measuring the uptake of both original acids and their esters into cells, a drug-resistant breast cancer cell line (EMT6) was chosen, as it survives the treatment with either acids or their esters at 100 uM for 24 hrs. The uptake of each compound (100 uM) into 1×10^5 cells mainly during the first 1 hr was quantitated by separation of either original acids or their esters taken by cells through HPLC column chromatography, and the amount of each compound was estimated by photometry at the wavelength 322 nm.

In data set [5] the test system is melanoma (B16F10) cells. Kind of data set: Trypan Blue cell viability/growth assay, B16F10 cells. Format: cell-based, murine. As for the experimental part: as §1, §2, §3, §4, §5
The conditions of data set [6]: ester vs parent acid (CA or UA); cited from earlier work.
Data set [7] concerns melanoma (B16F10) cells. Kind of data set: Melanin content assay (PAK1-dependent melanogenesis), B16F10 cells. As to conditions: alpha-MSH 100 nM stimulated; read-out: IC50 against the PAK1-dependent melanogenesis of melanoma (B16F10) cells. Format: cell-based, murine. How it is done: A. Cell line: Murine melanoma (B16F10) cells.
B. Cell seeding in 96 well plate: In culture medium D-MEM supplemented with 10% […] FBS (fetal bovine serum) and 1% penicillin/streptomycin (10,000 U/mL and 100 μg/mL). 2×10^4 cells were seeded in each well of 96 well plate in the medium at 37° C. for 24 hrs in a humidified atmosphere containing 5% CO2.
C. Inhibitor Stocks in DMSO (100 uM).
E. Melanin content Assay (4): The assay was performed as previously described. Cells were seeded in a 96-well plate at a density 5×10^4 cells/well in culture medium containing D-MEM supplemented with 10% FBS, 1% penicillin/streptomycin, and cultured for 24 hrs. Then, the cells were treated with a melanogenic stimulating hormone called α-MSH (100 nM), and treated with one of tested compounds for 48 hrs. After the medium was removed, cells were dissolved in 100 μL of 1 N NaOH. The mixture was heated at 90° C. for 1 hr, and the melanin content was estimated by reading the absorbance at 405 nm.

The subject of data set [8] is Human follicle dermal papilla (HFDP) cells. Briefly: Hair cell growth promoting (anti-alopecia) Trypan Blue assay, HFDP cells. It counts as cell-based. How it is done:
A. Cell line: Human follicle dermal papilla (HFDP) cells.
B. Cell seeding in 96 well plate: In culture medium D-MEM medium containing 50 mL of papilla cell growth medium (PCGM), 0.5 mL of fetal calf serum (FSC), 0.5 mL of BPE, 0.25 mL of Cyp, and 0.25 mL of ITT in 51.5 mL total volume.
C. Inhibitor Stocks in DMSO (100 μM).
D. Trypan Blue assay for cell viability/growth (4): HFDP cells were collected and diluted in medium containing Dulbecco's modified minimum essential medium (D-MEM) and 10% fetal bovine serum (FBS) at cell density of 1×10^4 cell/mL. Then, 200 μL of cell suspension (2,000 cells/well) was transferred into each well of collagen-coated 96 well plate, and cells were incubated for 37° C., under 5% CO2 for 3 days. The medium was removed, and 200 μL of samples prepared in D-MEM only was added. After 4 days incubation, cell were detached from the plate by a protease called accutase, and stained with Trypan blue, and the number of unstained (viable) cells was counted in a hemocytometer.

[9] abbreviates: Homo sapiens, growth of A459 lung cancer cell line (so in the source), read-out: IC50 of Original Acids.
[10] abbreviates: 96 hrs treatment, Trypan Blue exclusion, read-out: IC50 against the growth of A549 human lung cancer cells.

The values below come from patent US10058618B2, “PAK1-blocking 1,2,3-triazolyl esters” (priority 2016, dated 2018).

Where two headings read alike, the source gives them in different places.

For the compound `O=C(c1ccccc1)c1ccc2n1CCC2C(=O)O` (racemic) [Ketorolac, 5-benzoyl-2,3-dihydro-1H-pyrrolizine-1-carboxylic acid, reference compound], the IC50 in data set [1] (Homo sapiens, A549, racemic mixture, our unpublished observation, read-out: IC50 against the growth of human cancer cells) turned out to be 13 µM; in data set [1] (setting [9]), 13 µM.

`COc1ccccc1-n1cc(COC(=O)C2CCn3c(C(=O)c4ccccc4)ccc32)nn1` (racemic) [PRC-15K] gave an inhibition at 0.07 µM in data set [2] (at 70 nM) of approximately 50%. Moreover, the “fold more potent than Ketorolac, anti-PAK1 activity in cell culture” value in data set [2] (vs Ketorolac) is on record as “over 30 fold”. The IC50 was approximately 0.024 µM in data set [1] (A549, 50/50 racemic mixture, growth of human cancer cells, read-out: IC50); 0.024 µM in data set [1] (Homo sapiens, A549, 96 hrs treatment, Trypan Blue exclusion, read-out: IC50 against the growth of A549 human lung cancer cells); 0.024 µM in data set [1] (Homo sapiens, growth of A459 lung cancer cell line (so in the source), read-out: IC50 of Esters); 0.006 µM in data set [3] (in vitro, racemic form, read-out: IC50 against human COX-2); 0.005 µM in data set [5] (Mus musculus, B16-F10, read-out: IC50 against the PAK1-independent growth of melanoma (B16F10) cells). The “Potentiation of anti-cancer activity by esterization” value (“Potentiation of anti-cancer activity” for short) in data set [1] was “(>500 fold)”. For the same compound, the “fold more potent than original acid, growth of A549 cells” value (“fold more potent than original acid” for short) in data set [1] is reported as “over 500 fold”. For the same compound, the “times potent as much as compound 7” value in data set [1] (vs racemic ketorolac) is “more than 500 times”. Besides, in data set [3] (vs Ketorolac), the “fold more potent than Ketorolac, anti-COX-2” value is on record as “over 20 fold”. Besides, the “fold more cell-permeable than original acid” value in data set [4] is listed as “at least 10 fold”. In addition, the “fold more potent than Ketorolac, growth of B16F10 cells” value in data set [5] (vs Ketorolac) was “over 6000 fold”.

Regarding `CC(C)=CCc1cc(C=CC(=O)O)cc(CC=C(C)C)c1O` [ARC, 3,5-diprenyl-4-hydroxycinnamic acid, reference compound], the IC50 in data set [1] (setting [9]) came to 25 µM.

For the compound `O=C(O)/C=C/c1ccc(O)c(O)c1` [CA, caffeic acid, reference compound], the IC50 in data set [1] (setting [9]) was found to be 100 µM.

For `O=C(/C=C/c1ccc(O)c(O)c1)OCCc1ccccc1` [CAPE, caffeic acid phenethyl ester], in data set [6], the “fold more potent (cell-permeable) than parent acid” value is reported as 10 fold.

Turning to `COc1ccccc1-n1cc(COC(=O)/C=C/c2cc(CC=C(C)C)c(O)c(CC=C(C)C)c2)nn1` [PRC-15A], the “anti-PAK1 activity in cell culture, inhibition” value in data set [2] (at 1 mM) is recorded as “around 45%”. Besides, the IC50 in data set [1] (setting [10]) is 0.25 µM. For the same compound, in data set [1], the “Potentiation of anti-cancer activity” value is “(100 fold)” and the “fold more potent than original acid” value was determined as 100 fold. Further, in data set [7], the IC50 turned out to be 0.25 µM. Besides, in data set [8] (growth promotion), the “ED for the growth of human hair (HFDP) cells” value is listed as 20 nM. Moreover, the “fold more potent than ARC, growth of HFDP cells” value in data set [8] (vs ARC) came to 1000 fold. For the same compound, in data set [4], the “fold more cell-permeable than original acid” value is recorded as “at least 8 fold”.

As for `COc1ccccc1-n1cc(COC(=O)/C=C/c2ccc(O)c(O)c2)nn1` [PRC-15C], the “anti-PAK1 activity in cell culture, inhibition” value in data set [2] (at 1 μM) is given as “around 35%”. Further, the IC50 in data set [1] (setting [10]) is 0.225 µM. In data set [1], the “Potentiation of anti-cancer activity” value is on record as “(>400 fold)” and the “fold more potent than original acid” value is reported as “over 400 fold”. The IC50 in data set [7] was determined as 0.225 µM. Moreover, the “fold more cell-permeable than original acid” value in data set [4] is “at least 20 fold”. Moreover, the “fold more cell-permeable than original acid, probable upper estimate” value in data set [4] ('probably up to') is recorded as “up to 70 fold”.

Broadly, the IC50 is the concentration that gives 50% inhibition. What is called inhibition is how much of the control response was suppressed.
